The values below come from patent US7531329B2, “Carbonyl reductase, gene thereof and method of using the same” (Kaneka Corporation, priority 2002, dated 2009).

This experiment deals with reductase RDR. Nature of the experiment: Substrate specificity of the reductase RDR (NADH oxidation, decrease in absorbance at 340 nm). It is filed as biochemical, Devosia riboflavina IFO 13584. As to conditions: substrate 1 mM, NADH 0.25 mM, 100 mM phosphate buffer pH 6.5, 0.33% (v/v) dimethyl sulfoxide, 30° C.
For the compound `CCC(=O)Cc1ccccc1` [1-phenyl-2-butanone], the “% activity (relative value, activity to N-benzyl-3-pyrrolidinone taken as 100%)” value is 147%. With `CC(=O)c1ccccn1` [2-acetylpyridine], the “% activity (relative value, activity to N-benzyl-3-pyrrolidinone taken as 100%)” value was found to be 13%. With `CC(=O)c1ccc[nH]1` [2-acetylpyrrole], the “% activity (relative value, activity to N-benzyl-3-pyrrolidinone taken as 100%)” value is on record as 70%.

Regarding `CCC(C)=O` [2-butanone], the “% activity (relative value, activity to N-benzyl-3-pyrrolidinone taken as 100%)” value is listed as 280%.

With `O=C(CCl)c1cccc(Cl)c1` [2-chloro-1-(3′-chlorophenyl)ethanone], the “% activity (relative value, activity to N-benzyl-3-pyrrolidinone taken as 100%)” value is 463%. The value for `CCCCCC(C)=O` [2-heptanone] was 2777%. The value for `CCCCC(C)=O` [2-hexanone] was 5043%.

As to `O=C(CO)c1ccccc1` [2-hydroxyacetophenone], the “% activity (relative value, activity to N-benzyl-3-pyrrolidinone taken as 100%)” value amounted to 30%. For `CCC(=O)C(=O)O` [2-keto-n-butyric acid], the “% activity (relative value, activity to N-benzyl-3-pyrrolidinone taken as 100%)” value worked out at 15%.

Take `CC(C=O)c1ccccc1` (centres unmarked) [2-phenylpropionaldehyde]: the “% activity (relative value, activity to N-benzyl-3-pyrrolidinone taken as 100%)” value is given as 706%. The same measure for `O=Cc1ccccn1` [2-pyridinecarbaldehyde]: 82%. The value for `O=C1CCc2ccccc2C1` [2-tetoralone] was 1721%; that for `COc1ccc(C(C)=O)cc1OC` [3,4-dimethoxyacetophenone] was 2073%; that for `CC(=O)c1cccnc1` [3-acetylpyridine] was 788%.

Regarding `O=CCCc1ccccc1` [3-phenylpropionaldehyde], the “% activity (relative value, activity to N-benzyl-3-pyrrolidinone taken as 100%)” value is recorded as 685%. Consider `CC(=O)c1ccncc1` [4-acetylpyridine], for which the “% activity (relative value, activity to N-benzyl-3-pyrrolidinone taken as 100%)” value is 6448%. The same measure for `CC(=O)c1ccc(F)cc1` [4-fluoroacetophenone]: 366%. Regarding `CC(=O)CCO` [4-hydroxy-2-butanone], the “% activity (relative value, activity to N-benzyl-3-pyrrolidinone taken as 100%)” value is reported as 33%. As to `CC(=O)CC(C)C` [4-methyl-2-pentanone], the “% activity (relative value, activity to N-benzyl-3-pyrrolidinone taken as 100%)” value is 962%. For the compound `COc1cc2c(cc1OC)CC(=O)CC2` [6,7-dimethoxy-2-tetoralone], the “% activity (relative value, activity to N-benzyl-3-pyrrolidinone taken as 100%)” value is given as 2267%.

With `COc1ccc2c(c1)CCC(=O)C2` [6-methoxy-2-tetoralone], the “% activity (relative value, activity to N-benzyl-3-pyrrolidinone taken as 100%)” value came to 156%. The same measure for `COc1ccc2c(c1)CC(=O)CC2` [7-methoxy-2-tetoralone]: 7084%; for `O=C1CCN(Cc2ccccc2)C1` [N-benzyl-3-pyrrolidinone]: 100%. The same measure for `CC(C)=O` [acetone]: 194%; for `CC(=O)c1ccccc1` [acetophenone]: 181%; for `CC(=O)CC(C)=O` [acetylacetone]: 1354%.

On to `O=Cc1ccccc1` [benzaldehyde], for which the “% activity (relative value, activity to N-benzyl-3-pyrrolidinone taken as 100%)” value worked out at 21%.

Regarding `O=C(c1ccccc1)C(O)c1ccccc1` (centres unmarked) [benzoin], the “% activity (relative value, activity to N-benzyl-3-pyrrolidinone taken as 100%)” value is recorded as 13%.

Regarding `CC(=O)CC(=O)OCc1ccccc1` [benzyl acetoacetate], the “% activity (relative value, activity to N-benzyl-3-pyrrolidinone taken as 100%)” value is listed as 2015%. The same measure for `CC(=O)CCc1ccccc1` [benzylacetone]: 410%; for `O=C1CCCC1` [cyclopentanone]: 103%.

Turning to `CC(=O)C1CC1` [cyclopropyl methyl ketone], the “% activity (relative value, activity to N-benzyl-3-pyrrolidinone taken as 100%)” value came to 20%. For `CC(=O)C(C)=O` [diacetyl], the “% activity (relative value, activity to N-benzyl-3-pyrrolidinone taken as 100%)” value turned out to be 1614%. Consider `CCC(=O)CC` [diethyl ketone], for which the “% activity (relative value, activity to N-benzyl-3-pyrrolidinone taken as 100%)” value came out at 32%. The value for `CC1(C)COC(=O)C1=O` [dihydro-4,4-dimethyl-2,3-furandione] was 1314%; that for `CCOC(=O)C(Cl)C(=O)c1ccccc1` (centres unmarked) [ethyl 2-chloro-3-oxo-3-phenyloropionate] was 52%; that for `CCOC(=O)C(Cl)C(C)=O` (centres unmarked) [ethyl 2-chloroacetoacetate] was 8907%. The value for `C=CC(C(C)=O)C(=O)OCC` (centres unmarked) [ethyl 2-eteneacetoacetate] was 429%; that for `CCOC(=O)C(C)C(C)=O` (centres unmarked) [ethyl 2-methylacetoacetate] was 239%; that for `CCCCCCCCC(=O)C(=O)OCC` [ethyl 2-oxodecanoate] was 18%.

Consider `CCOC(=O)C1CCC(=O)C1` (centres unmarked) [ethyl 3-oxocyclopentane carboxylate], for which the “% activity (relative value, activity to N-benzyl-3-pyrrolidinone taken as 100%)” value is reported as 87%. In the case of `CCOC(=O)CC(=O)COC(C)=O` [ethyl 4-acetoxyacetoacetate], the “% activity (relative value, activity to N-benzyl-3-pyrrolidinone taken as 100%)” value is recorded as 4234%. The value for `CCOC(=O)CC(=O)CN=[N+]=[N-]` [ethyl 4-azideacetoacetate] was 804%; that for `CCOC(=O)CC(=O)COCc1ccccc1` [ethyl 4-benzyloxyacetoacetate] was 3186%. The value for `CCOC(=O)CC(=O)CBr` [ethyl 4-bromoacetoacetate] was 4099%. The value for `CCOC(=O)CC(=O)CCl` [ethyl 4-chloroacetoacetate] was 683%; that for `CCOC(=O)CC(=O)CO` [ethyl 4-hydroxyacetoacetate] was 1774%; that for `CCOC(=O)CC(C)=O` [ethyl acetoacetate] was 4236%. As for `CCOC(=O)CC(=O)c1ccccc1` [ethyl benzoylacetate], the “% activity (relative value, activity to N-benzyl-3-pyrrolidinone taken as 100%)” value was determined as 98%. Take `CCOC(=O)C(C)=O` [ethyl pyruvate]: the “% activity (relative value, activity to N-benzyl-3-pyrrolidinone taken as 100%)” value worked out at 6232%. As for `O=CCCCC=O` [glutaraldehyde], the “% activity (relative value, activity to N-benzyl-3-pyrrolidinone taken as 100%)” value was 1339%. The same measure for `CC(=O)CO` [hydroxyacetone]: 100%. The value for `CC(=O)CCC(=O)O` [levulinic acid] was 11%. For `O=Cc1cccc(Cl)c1` [m-chlorobenzaldehyde], the “% activity (relative value, activity to N-benzyl-3-pyrrolidinone taken as 100%)” value stood at 301%. The value for `CC(=O)c1cccc(O)c1` [m-hydroxyacetophenone] was 61%. For the compound `CC(=O)c1cccc([N+](=O)[O-])c1` [m-nitroacetophenone], the “% activity (relative value, activity to N-benzyl-3-pyrrolidinone taken as 100%)” value is given as 6927%. The same measure for `O=Cc1cccc([N+](=O)[O-])c1` [m-nitrobenzaldehyde]: 683%. The value for `COC(=O)CC(C)=O` [methyl acetoacetate] was 8341%; that for `CC(=O)C=O` [methyl glyoxal] was 345%; that for `COC(=O)C(C)=O` [methyl pyruvate] was 1889%. The value for `CCCC=O` [n-butylaldehyde] was 728%. Consider `CCCCCC=O` [n-hexylaldehyde], for which the “% activity (relative value, activity to N-benzyl-3-pyrrolidinone taken as 100%)” value was found to be 2225%. The same measure for `CCCCCCCCOC(=O)CC(=O)CCl` [n-octyl 4-chloroacetoacetate]: 224%.

As to `O=Cc1ccccc1Cl` [o-chlorobenzaldehyde], the “% activity (relative value, activity to N-benzyl-3-pyrrolidinone taken as 100%)” value is 9%.

In the case of `O=Cc1ccccc1[N+](=O)[O-]` [o-nitrobenzaldehyde], the “% activity (relative value, activity to N-benzyl-3-pyrrolidinone taken as 100%)” value is listed as 33%. For the compound `O=C(O)CC(=O)C(=O)O` [oxalacetic acid], the “% activity (relative value, activity to N-benzyl-3-pyrrolidinone taken as 100%)” value came to 14%. The value for `CC(=O)c1ccc(Cl)cc1` [p-chloroacetophenone] was 2354%; that for `O=Cc1ccc(Cl)cc1` [p-chlorobenzaldehyde] was 117%.

For the compound `CC(=O)c1ccc(C)cc1` [p-methylacetophenone], the “% activity (relative value, activity to N-benzyl-3-pyrrolidinone taken as 100%)” value is listed as 521%. Take `O=Cc1ccc([N+](=O)[O-])cc1` [p-nitrobenzaldehyde]: the “% activity (relative value, activity to N-benzyl-3-pyrrolidinone taken as 100%)” value came out at 1296%. The same measure for `CCC=O` [propionaldehyde]: 204%; for `CCC(=O)c1ccccc1` [propiophenone]: 27%.

On to `O=Cc1ccncc1` [pyridine-4-aldehyde], for which the “% activity (relative value, activity to N-benzyl-3-pyrrolidinone taken as 100%)” value stood at 441%. As to `CC(=O)CC(=O)OC(C)(C)C` [tert-butyl acetoacetate], the “% activity (relative value, activity to N-benzyl-3-pyrrolidinone taken as 100%)” value came out at 5634%.
